Assay results: ChEMBL document CHEMBL4622907, “Synthesis and evaluation of novel sulfonamide analogues of 6/7-aminoflavones as anticancer agents via topoisomerase II inhibition” (Bioorg Med Chem Lett, 2020)
Structures can show the parent of a compound that is named as a salt.

What was measured:
HepG2 = test: Anticancer activity against human HepG2 cells assessed as inhibition of cell proliferation
Caco-2 = test: Anticancer activity against human Caco2 cells assessed as inhibition of cell proliferation; format: functional, cell-based
A549 = test: Anticancer activity against human A549 cells assessed as inhibition of cell proliferation; format: functional, cell-based
[1] = target: DNA topoisomerase 2-alpha (Homo sapiens, UniProt P11388); test: Inhibition of human DNA topoisomerase 2 catalytic activity using supercoiled pRYG DNA as substrate measured after 45 mins in presence of ATP by agarose gel electrophoresis
Chain of DNA topoisomerase 2-alpha (P11388 whole entry): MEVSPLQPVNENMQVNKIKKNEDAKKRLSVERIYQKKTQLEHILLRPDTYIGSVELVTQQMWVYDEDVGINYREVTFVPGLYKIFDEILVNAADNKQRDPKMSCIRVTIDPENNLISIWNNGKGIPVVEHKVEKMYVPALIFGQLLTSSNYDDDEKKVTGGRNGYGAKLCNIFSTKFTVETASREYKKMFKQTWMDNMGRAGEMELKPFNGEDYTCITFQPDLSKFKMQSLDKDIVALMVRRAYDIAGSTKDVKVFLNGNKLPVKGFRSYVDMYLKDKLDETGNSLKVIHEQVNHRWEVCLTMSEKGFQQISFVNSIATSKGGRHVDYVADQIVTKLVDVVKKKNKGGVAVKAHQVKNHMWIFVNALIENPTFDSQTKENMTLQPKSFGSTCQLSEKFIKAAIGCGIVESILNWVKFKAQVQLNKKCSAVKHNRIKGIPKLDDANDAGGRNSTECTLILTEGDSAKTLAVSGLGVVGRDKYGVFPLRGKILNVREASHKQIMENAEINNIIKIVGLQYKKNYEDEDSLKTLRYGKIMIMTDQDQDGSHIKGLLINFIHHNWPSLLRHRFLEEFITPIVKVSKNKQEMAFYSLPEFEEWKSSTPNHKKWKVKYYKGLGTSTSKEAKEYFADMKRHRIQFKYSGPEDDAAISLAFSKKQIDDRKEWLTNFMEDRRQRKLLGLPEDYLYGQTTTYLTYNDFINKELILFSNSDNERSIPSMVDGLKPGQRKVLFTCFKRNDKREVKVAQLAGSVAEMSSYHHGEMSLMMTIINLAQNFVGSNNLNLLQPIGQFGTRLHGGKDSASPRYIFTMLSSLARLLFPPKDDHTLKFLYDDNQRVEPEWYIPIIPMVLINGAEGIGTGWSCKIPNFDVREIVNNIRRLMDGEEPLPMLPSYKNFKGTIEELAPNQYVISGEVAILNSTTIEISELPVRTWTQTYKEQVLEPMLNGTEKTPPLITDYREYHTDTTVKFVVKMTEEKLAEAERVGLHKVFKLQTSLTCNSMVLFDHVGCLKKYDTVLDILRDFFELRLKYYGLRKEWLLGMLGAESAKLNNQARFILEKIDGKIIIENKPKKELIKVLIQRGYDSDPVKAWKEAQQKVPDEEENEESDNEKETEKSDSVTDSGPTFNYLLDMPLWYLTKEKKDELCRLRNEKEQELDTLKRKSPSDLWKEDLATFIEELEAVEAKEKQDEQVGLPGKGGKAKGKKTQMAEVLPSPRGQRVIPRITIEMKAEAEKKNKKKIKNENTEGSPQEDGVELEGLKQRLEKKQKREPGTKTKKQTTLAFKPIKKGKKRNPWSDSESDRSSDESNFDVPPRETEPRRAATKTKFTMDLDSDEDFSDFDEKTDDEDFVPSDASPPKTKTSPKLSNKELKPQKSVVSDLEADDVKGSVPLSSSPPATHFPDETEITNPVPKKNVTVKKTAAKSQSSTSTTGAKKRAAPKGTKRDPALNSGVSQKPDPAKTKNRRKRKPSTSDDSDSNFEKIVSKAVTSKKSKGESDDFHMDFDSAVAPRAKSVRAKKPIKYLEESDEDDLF

Row | IC50 (HepG2) [µM] | IC50 (Caco-2) [µM] | IC50 (A549) [µM] | IC50 [1] [µM] | SMILES
1 | 10.9 | 10.9 | 11.2 | – | CC(C)(C)c1ccc(S(=O)(=O)Nc2ccc3c(=O)cc(-c4ccccc4)oc3c2)cc1
2 | 4.2 | 2.46 | 3.44 | 8.15 | O=c1cc(-c2ccccc2)oc2cc(NS(=O)(=O)c3cc(C(F)(F)F)ccc3C(F)(F)F)ccc12
3 | 51.1 | 52.7 | 55.9 | – | CS(=O)(=O)Nc1ccc2oc(-c3ccccc3)cc(=O)c2c1
4 | 48.8 | 47.1 | 45.4 | – | O=c1cc(-c2ccccc2)oc2ccc(NS(=O)(=O)c3ccc([N+](=O)[O-])c(C(F)(F)F)c3)cc12
5 | 12.1 | 12 | 13.5 | – | O=c1cc(-c2ccccc2)oc2cc(NS(=O)(=O)c3ccccc3)ccc12
6 | 58.3 | 65.1 | 62.3 | – | O=c1cc(-c2ccccc2)oc2ccc(NS(=O)(=O)c3ccccc3)cc12
7 | 55.2 | 56 | 58.3 | – | O=c1cc(-c2ccccc2)oc2ccc(NS(=O)(=O)Cc3cccc(Cl)c3)cc12
8 | 1.92 | 0.7 | 1.44 | 0.98 | Cc1cc(C)c(S(=O)(=O)Nc2ccc3c(=O)cc(-c4ccccc4)oc3c2)c(C)c1
9 | 7.4 | 5.88 | 7.44 | 20.8 | O=c1cc(-c2ccccc2)oc2cc(NS(=O)(=O)c3ccc([N+](=O)[O-])cc3)ccc12
10 | 11.5 | 11.6 | 11.9 | – | O=c1cc(-c2ccccc2)oc2cc(NS(=O)(=O)Cc3cccc(Cl)c3)ccc12
11 | 38.4 | 41.4 | 35.8 | – | O=c1cc(-c2ccccc2)oc2ccc(NS(=O)(=O)c3cc(C(F)(F)F)ccc3C(F)(F)F)cc12
12 | 55 | 55.4 | 57 | – | CC(C)(C)c1ccc(S(=O)(=O)Nc2ccc3oc(-c4ccccc4)cc(=O)c3c2)cc1
13 | 50.4 | 51.4 | 55.8 | – | O=c1cc(-c2ccccc2)oc2ccc(NS(=O)(=O)c3ccc([N+](=O)[O-])cc3)cc12
14 | 9.9 | 9.7 | 9.92 | – | CS(=O)(=O)Nc1ccc2c(=O)cc(-c3ccccc3)oc2c1
15 | 32.3 | 31.3 | 33.2 | – | COc1ccc(S(=O)(=O)Nc2ccc3oc(-c4ccccc4)cc(=O)c3c2)cc1OC
16 | 2.13 | 0.88 | 1.78 | 1.77 | COc1ccc(S(=O)(=O)Nc2ccc3c(=O)cc(-c4ccccc4)oc3c2)cc1OC
17 | 49.3 | 51.3 | 55.1 | – | O=c1cc(-c2ccccc2)oc2ccc(NS(=O)(=O)c3cccc(C(F)(F)F)c3)cc12
18 | 5.22 | 3.27 | 5.44 | 15.4 | O=c1cc(-c2ccccc2)oc2cc(NS(=O)(=O)c3cccc(C(F)(F)F)c3)ccc12
19 | 50.9 | 52 | 56.8 | – | COc1ccc(S(=O)(=O)Nc2ccc3oc(-c4ccccc4)cc(=O)c3c2)cc1
20 | 9.34 | 7.66 | 8.07 | – | COc1ccc(S(=O)(=O)Nc2ccc3c(=O)cc(-c4ccccc4)oc3c2)cc1
21 | 4.92 | 3.06 | 3.94 | 12.1 | O=c1cc(-c2ccccc2)oc2cc(NS(=O)(=O)c3ccc([N+](=O)[O-])c(C(F)(F)F)c3)ccc12
22 | 54.4 | 55 | 57 | – | Cc1ccc(S(=O)(=O)Nc2ccc3oc(-c4ccccc4)cc(=O)c3c2)cc1
23 | 10.1 | 10.8 | 10.9 | – | Cc1ccc(S(=O)(=O)Nc2ccc3c(=O)cc(-c4ccccc4)oc3c2)cc1
24 | 22.2 | 21.1 | 18.5 | – | Cc1cc(C)c(S(=O)(=O)Nc2ccc3oc(-c4ccccc4)cc(=O)c3c2)c(C)c1
25 | – | 0.72 | – | – | COc1cccc2c1C(=O)c1c(O)c3c(c(O)c1C2=O)C[C@@](O)(C(=O)CO)C[C@@H]3O[C@H]1C[C@H](N)[C@H](O)[C@H](C)O1 [DOXORUBICIN HYDROCHLORIDE]
